Our source for the IC50 values is patent US10450297B2, “Sulfonyl amide derivatives for the treatment of abnormal cell growth” (Pfizer, Inc., priority 2007, dated 2019).

Sequence of FAK kinase (catalytic construct FAK(410-689)) (Q05397 410-689): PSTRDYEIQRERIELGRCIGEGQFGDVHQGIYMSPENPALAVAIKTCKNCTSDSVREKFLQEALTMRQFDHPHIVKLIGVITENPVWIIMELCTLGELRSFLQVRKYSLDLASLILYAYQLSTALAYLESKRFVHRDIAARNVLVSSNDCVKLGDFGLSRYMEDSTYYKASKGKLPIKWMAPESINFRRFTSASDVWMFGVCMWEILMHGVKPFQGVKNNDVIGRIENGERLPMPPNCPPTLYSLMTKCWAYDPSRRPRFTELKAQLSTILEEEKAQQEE

This assay has as its target FAK kinase (catalytic construct FAK(410-689)) (Homo sapiens (Human), UniProt Q05397). In words: FAKcd kinase ELISA (inhibition of poly-glu-tyr phosphorylation by FAK(410-689)). It is filed as biochemical. As to conditions: 50 μM final ATP. Background: ELISA stands for enzyme-linked immunosorbent assay.
`CN(c1cccc(CNc2nc(Nc3ccc(C(N)=O)c(O)c3)ncc2C(F)(F)F)c1)S(C)(=O)=O` [Compound 396, 2-hydroxy-4-{[4-({3-[methyl(methylsulfonyl)amino]benzyl}amino)-5-(trifluoromethyl)pyrimidin-2-yl]amino}bertzamide]: half-maximal inhibition (IC50) required 3.13 nM. For `CN(c1ncccc1CNc1nc(Nc2ccc(/C(N)=N/O)cc2)ncc1C(F)(F)F)S(C)(=O)=O` [Compound 407, N′-hydroxy-4-({4-[({2-[methyl(methylsulfonyl)amino]pyridin-3-yl}methyl)amino]-5-(trifluoromethyl)pyrimidin-2-yl}amino)benzenecarboximidamide], the concentration for half-maximal inhibition (IC50) was less than 0.595 nM. Compound `COc1cc(Nc2ncc(C(F)(F)F)c(NCc3cccnc3N(C)S(C)(=O)=O)n2)ccn1` [Compound 93, N-{3-[({2-[(2-methoxypyridin-4-yl)amino]-5-(trifluoromethyl)pyrimidin-4-yl}amino)methyl]pyridin-2-yl}-N-methylmethane-sulfonamide] gave an IC50 of 0.6 nM. The compound `CC(N)c1ccc(Nc2ncc(C(F)(F)F)c(NCc3nccnc3N(C)S(C)(=O)=O)n2)cc1` (stereo in doubt) [Compound 351, N-[3-({[2-({4-[(1R)-1-aminoethyl]phenyl}amino)-5-(trifluoromethyl)pyrimidin-4-yl]amino}methyl)pyrazin-2-yl]-N-methylmethane-sulfonamide] returned a half-inhibitory concentration (IC50) of 0.616 nM. Consider `Cc1cc(Nc2ncc(C(F)(F)F)c(NCc3nccnc3N(C)S(C)(=O)=O)n2)ccc1C(N)=O` [Compound 338, 2-methyl-4-({4-[({3-[methyl(methylsulfonyl)amino]pyrazin-2-yl}methyl)amino]-5-(trifluoromethyl)pyrimidin-2-yl}amino)benzamide], for which the IC50 is less than 0.595 nM.

The compound `CN(c1ncccc1CNc1nc(Nc2cccc(C(=O)N3CCC(F)(F)C3)c2)ncc1C(F)(F)F)S(C)(=O)=O` [Compound 177, N-[3-({(2-({3-[(3,3-difluoropyrrolidin-1-yl)carbonyl]phenyl}amino)-5-(trifluoromethyl)pyrimidin-4-yl]amino}methyl)pyridin-2-yl]-N-methylmethane-sulfonamide] showed an IC50 of 5.93 nM. Take `CCNC(=O)c1ccc(Nc2ncc(C(F)(F)F)c(NCc3cccc(S(C)(=O)=O)c3)n2)cc1` [Compound 77, N-ethyl-4-{[4-{[3-(methylsulfonyl)benzyl]amino}-5-(trifluoromethyl)pyrimidin-2-yl]amino}benzamide]: inhibition was half-maximal at 0.6 nM (IC50). Next, `CC(=O)NCC(=O)NCc1ccc(Nc2ncc(C(F)(F)F)c(NCc3cccnc3N(C)S(C)(=O)=O)n2)cc1` [Compound 215, N~2~-acetyl-N-[4-({4-[({2-[methyl(methylsulfonyl)amino]pyridin-3-yl}methyl)amino]-5-(trifluoromethyl)pyrimidin-2-yl}amino)benzyl]glycinamide]: 0.6 nM. Compound `CN(c1ncccc1CNc1nc(Nc2cccc(C#N)c2)ncc1C(F)(F)F)S(C)(=O)=O` [Compound 286, N-{3-[({2-[(3-cyanophenyl)amino]-5-(trifluoromethyl)pyrimidin-4-yl}amino)methyl]pyridin-2-yl}-N-methylmethanesulfonamide] gave an IC50 of 1.64 nM.

`CN(c1ncccc1CNc1nc(Nc2ccc(S(N)(=O)=O)cc2)ncc1C(F)(F)F)S(C)(=O)=O` [Compound 16, 4-({4-[({2-[methyl(methylsulfonyl)amino]pyridin-3-yl}methyl)amino]-5-(trifluoromethyl)pyrimidin-2-yl}amino)benzenesulfon-amide] registered an IC50 of 4.09 nM.

For the compound `CN(c1ncccc1CNc1nc(Nc2ccc(S(C)(=O)=O)nc2)ncc1C(F)(F)F)S(C)(=O)=O` [Compound 23, N-methyl-N-[3-({[2-{[6-(methylsulfonyl)pyridin-3-yl]amino}-5-(trifluoromethyl)pyrimidin-4-yl]amino}methyl)pyridin-2-yl]methanesulfonamide], the IC50 was 68.6 nM. The compound `Cc1ccc(C(N)=O)cc1Nc1ncc(C(F)(F)F)c(NCc2nccnc2N(C)S(C)(=O)=O)n1` [Compound 309, 4-methyl-3-({4-[({3-[methyl(methylsulfonyl)amino]pyrazin-2-yl}methyl)amino]-5-(trifluoromethyl)pyrimidin-2-yl}amino)benzamide] yielded an IC50 of 3.51 nM.

`CN(c1cccnc1CNc1nc(Nc2ccc(F)c(C(N)=O)c2)ncc1C(F)(F)F)S(C)(=O)=O` [Compound 381, 2-fluoro-5-({4-[({3-[methyl(methylsulfonyl)amino]pyridin-2-yl}methyl)amino]-5-(trifluoromethyl)pyrimidin-2-yl}amino)benzamide] had an IC50 of 4.55 nM. The compound `CN(c1ncccc1CNc1nc(Nc2ccc(C(=O)NCC3CC3)cc2)ncc1C(F)(F)F)S(C)(=O)=O` [Compound 252, N-(cyclopropylmethyl)-4-({4-[({2-[methyl(methylsulfonyl)amino}pyridin-3-yl}methyl)amino]-5-(trifluoromethyl)pyrimidin-2-yl}amino)benzamide] registered an IC50 of 1.48 nM. `CCC[C@H](CO)NC(=O)c1ccc(Nc2ncc(C(F)(F)F)c(NCc3cccnc3N(C)S(C)(=O)=O)n2)cc1` [Compound 257, N-[(1R)-1-(hydroxymethyl)butyl]-4-({4-[({2-[methyl(methylsulfonyl)amino]pyridin-3-yl}methyl)amino]-5-(trifluoromethyl)pyrimidin-2-yl}amino)benzamide]: 5.8 nM corresponded to half-maximal inhibition (IC50). `CN(c1cccc(CNc2nc(Nc3cc(C(N)=O)ccc3F)ncc2C(F)(F)F)c1)S(C)(=O)=O` [Compound 374, 4-fluoro-3-{[4-({3-[methyl(methylsulfonyl)amino]benzyl}amino)-5-(trifluoromethyl)pyrimidin-2-yl]amino}benzamide] displayed an IC50 of 15.5 nM. Compared with the last compound, the IC50 is about 2.7-fold higher. In turn, `COc1ccc(Nc2ncc(C(F)(F)F)c(NCc3cccnc3N(C)S(C)(=O)=O)n2)cc1` [Compound 280, N-{3-[({2-[(4-methoxyphenyl)amino]-5-(trifluoromethyl)pyrimidin-4-yl}amino)methyl]pyridin-2-yl}-N-methylmethane-sulfonamide] returned an IC50 of 0.6 nM. As for `CC(=O)Nc1ccc(Nc2ncc(C(F)(F)F)c(NCc3cccnc3N(C)S(C)(=O)=O)n2)cn1` [Compound 102, N-[5-({4-[({2-[methyl(methylsulfonyl)amino]pyridin-3-yl}methyl)amino]-5-(trifluoromethyl)pyrimidin-2-yl}amino)pyridin-2-yl]acetamide], the IC50 is 2.33 nM. The compound `CN(c1ncccc1CNc1nc(NC2CCN(C(N)=O)CC2)ncc1C(F)(F)F)S(C)(=O)=O` [Compound 57, 4-({4-[({2-[methyl(methylsulfonyl)amino]pyridin-3-yl}methyl)amino]-5-(trifluoromethyl)pyrimidin-2-yl}amino)piperidine-1-carboxamide] returned an IC50 of 188 nM.

Regarding `CN(c1ncccc1CNc1nc(Nc2ccc(C(=O)N3CC[C@@H](O)C3)cc2)ncc1C(F)(F)F)S(C)(=O)=O` [Compound 249, N-{3-[({2-[(4-{[(3R)-3-hydroxypyrrolidin-1-yl]carbonyl}phenyl)amino]-5-(trifluoromethyl)pyrimidin-4-yl}amino)methyt]pyridin-2-yl}-N-methylmethane-sulfonamide], half-maximal inhibition (IC50) required 1.91 nM.

Consider `Cc1cc(C(N)=O)ccc1Nc1ncc(C(F)(F)F)c(NCc2cccc(N(C)S(C)(=O)=O)c2)n1` [Compound 346, 3-methyl-4-{[4-({3-[methyl(methylsulfonyl)amino]benzyl}amino)-5-(trifluoromethyl)pyrimidin-2-yl]amino}benzamide], for which the IC50 was 0.886 nM. As to `CC(=O)NCCNC(=O)c1ccc(Nc2ncc(C(F)(F)F)c(NCc3cccnc3N(C)S(C)(=O)=O)n2)cc1` [Compound 245, N-[2-(acetylamino)ethyl]-4-({4-[({2-[methyl(methylsulfonyl)amino]pyridin-3-yl}methyl)amino]-5-(trifluoromethyl)pyrimidin-2-yl}amino)benzamide], the midpoint of inhibition, the IC50, lay at 2.62 nM.

Consider `COc1cc(C(N)=O)ccc1Nc1ncc(C(F)(F)F)c(NCc2cccnc2N(C)S(C)(=O)=O)n1` [Compound 48, 3-methoxy-4-({4-[({2-[methyl(methylsuffonyl)amino]pyridin-3-yl}methyl)amino]-5-(trifluoromethyl)pyrimidin-2-yl}amino)benzamide], for which the IC50 is 0.59 nM. Next, `CN(c1cccnc1CNc1nc(Nc2ccc(C(C)(C)O)cc2)ncc1C(F)(F)F)S(C)(=O)=O` [Compound 325, N-[2-({[2-{[4-(1-hydroxy-1-methylethyl)phenyl]amino}-5-(trifluoromethyl)pyrimidin-4-yl)amino}methyl)pyridin-3-yl]-N-methylmethane-sulfonamide]: 2.66 nM; `CN(c1ncccc1CNc1nc(Nc2ccc(C(=O)N3CC[C@H](O)C3)cc2)ncc1C(F)(F)F)S(C)(=O)=O` [Compound 267, N-{3-[({2-[(4-{[(3S )-3-hydroxypyrrolidin-1-yl]carbonyl}phenyl)amino]-5-(trifluoromethyl)pyrimidin-4-yl}amino)methyl]pyridin-2-yl}-N-methylmethane-sulfonamide]: 1.15 nM.

In the case of `Cc1ccc(N(C)S(C)(=O)=O)c(CNc2nc(Nc3ccccc3)ncc2C(F)(F)F)c1` [Compound 66, N-[2-({[2-anilino-5-(trifluoromethyl)pyrimidin-4-yl]amino}methyl)-4-methylphenyl]-N-methylmethanesulfonamide], it took 0.6 nM to reach half-maximal inhibition (IC50). In turn, `CC(=O)N1CC[C@@H](Nc2ncc(C(F)(F)F)c(NCc3cccnc3N(C)S(C)(=O)=O)n2)C1` [Compound 39, N-[3-({[2-{[(3R)-1-acetylpyrrolidin-3-yl]amino}-5-(trifluoromethyl)pyrimidin-4-yl]amino}methyl)pyridin-2-yl]-N-methylmethane-sulfonamide] had an IC50 of 1000 nM. With `Cc1ccc(CNc2nc(Nc3ccc(S(N)(=O)=O)cc3)ncc2C(F)(F)F)c(N(C)S(C)(=O)=O)n1` [Compound 17, 4-({4-[({6-methyl-2-[methyl(methylsulfonyl)amino]pyridin-3-yl}methyl)amino]-5-(trifluoromethyl)pyrimidin-2-yl}amino)benzene-sulfonamide], 1.26 nM corresponded to half-maximal inhibition (IC50).

As usually defined, the IC50 is the point on the concentration scale where inhibition reaches its midpoint.
